Reference: the NIST ThermoML archive (doi:10.1016/j.jct.2012.03.034)

Experiment: xn = mol fraction of the nth substance listed
Conditions: 101 kPa, Liquid; for speed of sound: Linear variable-path acoustic interferometer; for mass density: Vibrating tube method; for viscosity: dual vibrating plate viscometer, AandD Co. Ltd Model SV-10

CC(=O)[O-].CC[NH2+]CC [diethylammonium acetate] + CN1CCCC1=O
Conditions	mass density [kg/m3]	speed of sound [m/s]	viscosity [mPa·s]
298.15 K, x1 = 0.0234	1026.53	1570	1.83
298.15 K, x1 = 0.0473	1027.19	1570	1.82
298.15 K, x1 = 0.1188	1028.41	1576	2.26
298.15 K, x1 = 0.1668	1029.09	1575	2.67
298.15 K, x1 = 0.2393	1029.73	1563	3.57
298.15 K, x1 = 0.3616	1030.18	1527	5.62
298.15 K, x1 = 0.411	1030.19	1510	6.49
298.15 K, x1 = 0.4856	1029.95	1487	7.94
298.15 K, x1 = 0.6115	1028.88	1458	10.53
298.15 K, x1 = 0.7391	1027.18	1454	13.14
298.15 K, x1 = 0.8686	1024.96	1486	15.33
298.15 K, x1 = 0.9493	1023.14	1539	16.26
298.15 K, x1 = 0.9758	1022.3	1562	16.41
298.15 K, x1 = 1	1021.41	1608	16.36
303.15 K, x1 = 0.0234	1024.14	1555	1.6
303.15 K, x1 = 0.0473	1024.34	1557	1.66
303.15 K, x1 = 0.1188	1025.34	1563	2.03
303.15 K, x1 = 0.1668	1025.85	1565	2.34
303.15 K, x1 = 0.2393	1026.2	1556	3.09
303.15 K, x1 = 0.3616	1026.29	1523	4.89
303.15 K, x1 = 0.411	1026.22	1508	5.6
303.15 K, x1 = 0.4856	1025.78	1488	6.88
303.15 K, x1 = 0.6115	1024.47	1460	9.13
303.15 K, x1 = 0.7391	1022.47	1458	11.3
303.15 K, x1 = 0.8686	1019.99	1494	13.05
303.15 K, x1 = 0.9493	1018.04	1552	13.74
303.15 K, x1 = 0.9758	1017.29	1574	13.82
303.15 K, x1 = 1	1016.52	1612	13.64
308.15 K, x1 = 0.0234	1019.65	1531	1.48
308.15 K, x1 = 0.0473	1019.91	1536	1.67
308.15 K, x1 = 0.1188	1020.3	1546	1.87
308.15 K, x1 = 0.1668	1020.67	1548	2.15
308.15 K, x1 = 0.2393	1020.89	1542	2.84
308.15 K, x1 = 0.3616	1020.97	1514	4.45
308.15 K, x1 = 0.411	1020.77	1502	5.1
308.15 K, x1 = 0.4856	1020.41	1484	6.24
308.15 K, x1 = 0.6115	1019.23	1462	8.23
308.15 K, x1 = 0.7391	1017.4	1463	10.18
308.15 K, x1 = 0.8686	1015.03	1501	11.58
308.15 K, x1 = 0.9493	1013.14	1555	12.1
308.15 K, x1 = 0.9758	1012.47	1580	12.16
308.15 K, x1 = 1	1011.87	1616	11.83
313.15 K, x1 = 0.0234	1014.97	1527	1.37
313.15 K, x1 = 0.0473	1015.32	1532	1.44
313.15 K, x1 = 0.1188	1015.77	1544	1.75
313.15 K, x1 = 0.1668	1016.03	1547	1.98
313.15 K, x1 = 0.2393	1016.53	1543	2.61
313.15 K, x1 = 0.3616	1016.79	1520	4.05
313.15 K, x1 = 0.411	1016.77	1509	4.66
313.15 K, x1 = 0.4856	1016.52	1494	5.67
313.15 K, x1 = 0.6115	1015.76	1473	7.42
313.15 K, x1 = 0.7391	1014.43	1477	9.06
313.15 K, x1 = 0.8686	1012.59	1515	10.26
313.15 K, x1 = 0.9493	1010.98	1567	10.62
313.15 K, x1 = 0.9758	1010.43	1592	10.57
313.15 K, x1 = 1	1010.08	1617	10.02
